The values that follow come from US9624280B2 (JANSSEN BIOTECH, INC., priority 2013, dated 2017).

pIC50: −log10 of the molar value. No end group written: not given here.

One assay has as its target T1, human Nav1.7 (Homo sapiens, UniProt Q15858, W1161R).
T1 construct: expressed in transfected cells
The format is cell-based.

The next assay has as its target T2, human Nav1.6 (Homo sapiens, UniProt Q9UQD0).
T2 construct: expressed in transfected cells
It is filed as cell-based.

The next assay concerns C57Bl/6 mice. Put plainly: CFA model of inflammatory pain, thermal hyperalgesia (Hargreaves test). The format is in vivo. As to conditions: for Thermal MPE %: CFA model, mice, mean±s.e.m. (n). The protocol:
Male C57Bl/6 mice (24-26 g), ordered from Charles River and housed individually, were used for this study.
This box consists of a chamber with a raised glass floor maintained at a constant temperature (27° C.). The thermal nociceptive stimulus originates from a projection bulb light beam below the glass surface. The light beam is aimed at the area between toris (center plantar). The “start” button will turn on the light and start the timer. Movements (such as a sudden withdrawal) of the stimulated paw will trigger the switch to turn off the light and stop the timer. […] If no movement occurs, the bulb will be turned off after 20 seconds (cutoff) to prevent tissue injury. The animals were allowed to habituate on the glass surface for 30-60 minutes before PWL measurement.
Percent maximum possible effect (MPE %)=(T1−T0)/(Tc−T0)×100%. T0: threshold on day0 (post-CFA, pre-pump); T1: threshold on day1 post pump implantation; Tc: cut-off of the test (20 s for the Hargreaves test and 2 g for the Von Frey test)
Animals were anesthetized with isoflurane (4% induction and 2% maintenance) and 20 μL of 100% Complete Freund's Adjuvant (CFA; Sigma-Aldrich; Saint Louis, Mo.) was injected into the center plantar area on one hind paw using a 27 gauge needle attached to a 50 μL Hamilton syringe. Carrageenan model: Animals were anesthetized with isoflurane (4% induction and 2% maintenance) and 25 μL of 2% A-carrageenan (Sigma-Aldrich; Saint Louis, Mo.) dissolved in normal saline was injected into the center plantar area on hind paws using an insulin syringe (BD; Franklin Lakes, N.J.).
Alzet micro-osmotic mini pumps (Durect Corporation Model 1003D and 2001D) were filled and primed per manufacturer's guide. Mice were anesthetized with isoflurane (5% induction; 2% maintenance). Their backs were shaved, wiped down with isopropyl alcohol and povidone iodine, and a small incision was made between the scapulae. Using a pair of forceps or hemostat, a small pocket was formed by spreading the subcutaneous connective tissues apart. The pump was inserted into the pocket with the flow moderator pointing away from the incision. The skin incision was then closed using 7 mm staples and the animals were allowed to recover in their home cages.
Data are represented as mean±s.e.m. Prism (Graphpad Software Inc., La Jolla, Calif.) was used for graphing and statistical analysis. For comparison of threshold values over time, a two-way ANOVA followed by Bonferroni's multiple comparison test was used with a significance level of p<0.05. Hotplate and MPE % data were analyzed by one-way ANOVA followed by Bonferroni's multiple comparison test.

Where [1] appears, read: 684 and 1824 μg/day, subcutaneous osmotic mini-pump.
Setting [2] is: 228 μg/day/mouse by subcutaneous osmotic mini-pump.
The mark [3] stands for this setting: 1824 μg/day/mouse by subcutaneous osmotic mini-pump.

What is called pIC50 is −log10 of the IC50, conventionally taken in molar units. A lower pIC50 goes with a large IC50.

T2 sequence (Q9UQD0 whole entry): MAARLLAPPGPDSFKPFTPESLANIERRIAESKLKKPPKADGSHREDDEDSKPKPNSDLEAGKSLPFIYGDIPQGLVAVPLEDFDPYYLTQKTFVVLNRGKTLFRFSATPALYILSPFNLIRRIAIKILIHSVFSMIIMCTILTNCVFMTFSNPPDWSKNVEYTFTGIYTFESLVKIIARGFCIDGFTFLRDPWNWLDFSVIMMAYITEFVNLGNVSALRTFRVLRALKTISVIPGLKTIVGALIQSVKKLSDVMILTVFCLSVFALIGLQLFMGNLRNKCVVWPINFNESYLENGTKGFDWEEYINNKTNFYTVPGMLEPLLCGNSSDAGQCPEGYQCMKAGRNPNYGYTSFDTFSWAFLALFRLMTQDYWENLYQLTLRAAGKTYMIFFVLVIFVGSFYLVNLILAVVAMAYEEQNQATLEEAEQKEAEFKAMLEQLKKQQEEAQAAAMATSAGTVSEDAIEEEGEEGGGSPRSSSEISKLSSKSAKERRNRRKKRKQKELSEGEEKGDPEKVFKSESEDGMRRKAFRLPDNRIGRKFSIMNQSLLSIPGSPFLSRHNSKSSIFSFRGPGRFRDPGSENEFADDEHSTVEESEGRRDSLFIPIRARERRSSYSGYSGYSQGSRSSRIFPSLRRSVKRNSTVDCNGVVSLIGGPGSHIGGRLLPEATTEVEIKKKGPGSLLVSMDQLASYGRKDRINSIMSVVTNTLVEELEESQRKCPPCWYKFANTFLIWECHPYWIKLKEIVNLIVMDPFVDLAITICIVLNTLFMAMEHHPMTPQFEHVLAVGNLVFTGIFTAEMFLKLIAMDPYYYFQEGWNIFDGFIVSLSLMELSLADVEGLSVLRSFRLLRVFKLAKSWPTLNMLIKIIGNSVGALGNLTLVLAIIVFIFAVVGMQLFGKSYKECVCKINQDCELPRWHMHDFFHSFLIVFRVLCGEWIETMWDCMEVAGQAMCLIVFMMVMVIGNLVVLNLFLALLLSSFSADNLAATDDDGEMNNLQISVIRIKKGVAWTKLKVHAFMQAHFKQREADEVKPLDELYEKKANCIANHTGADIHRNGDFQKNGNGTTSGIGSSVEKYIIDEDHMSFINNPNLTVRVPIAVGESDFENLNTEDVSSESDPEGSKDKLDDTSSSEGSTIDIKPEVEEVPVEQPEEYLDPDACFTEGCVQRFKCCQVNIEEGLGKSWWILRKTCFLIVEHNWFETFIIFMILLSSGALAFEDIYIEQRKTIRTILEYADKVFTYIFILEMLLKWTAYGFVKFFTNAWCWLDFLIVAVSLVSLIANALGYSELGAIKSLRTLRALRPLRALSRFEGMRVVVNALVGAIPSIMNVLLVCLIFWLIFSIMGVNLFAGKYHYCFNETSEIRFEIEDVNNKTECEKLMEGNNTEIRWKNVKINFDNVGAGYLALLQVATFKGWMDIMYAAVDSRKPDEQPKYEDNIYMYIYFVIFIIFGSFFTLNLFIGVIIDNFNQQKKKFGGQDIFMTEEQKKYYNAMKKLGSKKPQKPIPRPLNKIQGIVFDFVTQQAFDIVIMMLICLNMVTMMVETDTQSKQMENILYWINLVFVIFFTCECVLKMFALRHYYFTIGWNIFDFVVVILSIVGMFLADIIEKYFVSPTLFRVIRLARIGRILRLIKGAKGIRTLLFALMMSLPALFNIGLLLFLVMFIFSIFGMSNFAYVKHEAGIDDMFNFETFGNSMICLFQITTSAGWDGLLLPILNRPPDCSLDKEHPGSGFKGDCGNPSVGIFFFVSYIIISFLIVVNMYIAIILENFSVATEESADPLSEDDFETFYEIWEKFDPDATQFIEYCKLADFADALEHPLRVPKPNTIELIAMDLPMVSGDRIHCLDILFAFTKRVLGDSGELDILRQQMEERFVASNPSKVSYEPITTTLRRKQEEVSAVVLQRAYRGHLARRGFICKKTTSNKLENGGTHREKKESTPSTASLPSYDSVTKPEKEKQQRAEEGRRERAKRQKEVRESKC

On human Nav1.7, “GPQCQKWMQTCDRERKCCEGFVCTLWCRKKLWGSGGGGSAPAPAPAPAPAPAPAPAPAPGGGGSGSCCNCSSKWCRDHSRCC [NV1D3829]” gave a pIC50 of 6.91.

With “GPQCQKWMQTCDRERKCCQGFVCTLWCRKKLW-OH (cysteine pairing not given here) [NV1D3388]”, the “selectivity for Nav1.7 compared to recombinant Protoxin-II” value (“selectivity” for short) at human Nav1.6 is “improved selectivity”. With “GPQCQKWMQTCDRERKCCEGFVCTLWCRKKLW-NH2 [NV1D3034-NH2]”, on human Nav1.6, the “selectivity” value is on record as “improved selectivity”. As for “GPQCQKWMQSCDRERKCCEGFVCTLWCRKKLW-OH (cysteine pairing not given here) [NV1D3359]”, at human Nav1.6, the “selectivity” value is “improved selectivity”. Take “GPACQKWMQTCDRNRKCCEGFVCTLWCRKKLW-OH (cysteine pairing not given here) [NV1D3541]”: the “selectivity” value on human Nav1.6 is recorded as “improved selectivity”. With “GPQCQKWMQTCDRERKCCEGFVCTLWCRKKLWGSAPAPAPAPAPGSCCNCSSKWCRDHSRCCGR [NV1D3800]”, at human Nav1.7, the negative-log IC50 (pIC50) was 7.22. Same read-out and setting: the figure for “GPCCNCSSKWCRDHSRCCGRGSAPAPAPAPAPAPAPAPAPAPGSQCQKWMQTCDRERKCCEGFVCTLWCRKKLW [NV1D3793]” is 7.19.

Regarding “GPYCQKWMQTCDANRKCCEGFSCRLWCKKKLW-NH2 [NV1D3586-NH2]”, at human Nav1.6, the “selectivity” value is “improved selectivity”. Take “GPGWCGDPGATCGKLRLYCCSGFCDAYTKTCKDKSSAGGGGSAPAPAPAPAPAPAPAPAPAPAPAPAPAPAPGGGGSQCQKWMQTCDRERKCCEGFVCTLWCRKKLW [NV1D3824]”: at human Nav1.7, the pIC50 is 6.96. For the substance “GPACQKWMQTCDANRKCCEGFSCRLWCKKKLW-OH (cysteine pairing not given here) [NV1D3587]”, the “selectivity” value on human Nav1.6 is “improved selectivity”. On to “GPCRTIGPSVCAPAPAPAPAPAPAPAPAPAPQCQKWMQTCDRERKCCEGFVCTLWCRKKLW [NV1D3832]”, for which the negative logarithm of the IC50 (pIC50) against human Nav1.7 is 7.05.

For “GPQCQKWMQTCDRERKCCEGFVCTLWCRKKLW-OH (cysteine pairing not given here) [NV1D3034]”, the “reversal of CFA-induced thermal hyperalgesia” value (from here on “reversal”) in the assay on C57Bl/6 mice (setting [1]) is on record as “completely reversed”. Moreover, the “Thermal MPE %” value is on record as 22 ± 6 (6) % in the assay on C57Bl/6 mice (setting [2]) and 50 ± 6 (8) % with C57Bl/6 mice (setting [3]). On to “GPQCQKWMQTCDAERKCCEGFVCRLWCKKKLWGSAPAPAPAPAPAPAPAPAPAPGSCCNCSSKWCRDHSRCCGR [NV1D3259]”, for which the pIC50 against human Nav1.7 is 7.26.

As to “Ac-QCQKWMQTCDRERKCCEGFVCTLWCRKKLW-NH2 [(-GP) N-Ac-NV1D3034-NH2]”, the “selectivity” value at human Nav1.6 was “improved selectivity”. The substance “GPCCNCSSKWCRDHSRCCGRGSAPAPAPAPAPAPAPAPAPAPGSQCQKWMQTCDAERKCCEGFVCRLWCKKKLW [NV1D3260]” had a pIC50 on human Nav1.7 of 7.24. As to “GPQCQKWMQTCDAERKCCEGFSCTLWCKKKLW-OH (cysteine pairing not given here) [NV1D2974]”, at human Nav1.6, the “selectivity” value is reported as “improved selectivity”. On to “GPQCQKWMQTCDRERKCCEGFVCTLWCRKKLWGSAPAPAPAPAPAPAPAPAPAPGSCCNCSSKWCRDHSRCC [NV1D3797]”, for which the pIC50 at human Nav1.7 was 7.04. On the same count and under the same terms, the figure for “GPCCNCSSKWCRDHSRCCGRGSAPAPAPAPAPGSQCQKWMQTCDAERKCCEGFVCRLWCKKKLW [NV1D3256]” is 7.25. In the case of “GPQCQKWMQTCDRNRKCCEGFVCTLWCRKKLW-OH (cysteine pairing not given here) [NV1D3044]”, at human Nav1.6, the “selectivity” value was “improved selectivity”. Regarding “GPQCQKWMQTCDRERKCCEGFVCTLWCRKKLW-NH-butyl [NV1D3034-NH-butyl]”, the “selectivity” value at human Nav1.6 is on record as “improved selectivity”. As to “GPQCQKWMQTCDRERKCCEGFVCTLWCRKKLW-NH-methyl [NV1D3034-NH-methyl]”, at human Nav1.6, the “selectivity” value is listed as “improved selectivity”. In addition, the “Thermal MPE %” value in the assay with C57Bl/6 mice (setting [3]) is given as 49 ± 17 (6) %. In the assay on C57Bl/6 mice (dose not given), the “reversal” value is “readily reversed”. At human Nav1.7, “GPCCNCSSKWCRDHSRCCGSAPAPAPAPAPAPAPAPAPAPGSQCQKWMQTCDAERKCCEGFVCRLWCKKKLW [NV1D3262]” had a negative-log IC50 (pIC50) of 7.05.

“GPQCQKWMQTCDRERKCCEGFVCTLWCRKKLWGSGGGGSAPAPAPAPAPAPAPAPAPAPGGGGSGSCCNCSSKWCRDHSRCCGR [NV1D3828]” gave a negative logarithm of the IC50 (pIC50) at human Nav1.7 of 7.06. In the case of “GPQCQKWMQTCDRTRKCCEGFVCTLWCRKKLW-NH2 [NV1D3368-NH2]”, the “selectivity” value on human Nav1.6 was “improved selectivity”. The “Thermal MPE %” value is 27 ± 4 (4) % with C57Bl/6 mice (setting [2]) and 55 ± 15 (6) % in the assay on C57Bl/6 mice (setting [3]). Also, in the assay on C57Bl/6 mice (dose not given), the “reversal” value was “readily reversed”. On human Nav1.7, “GPQCQKWMQTCDRERKCCEGFVCTLWCRKKLWGSAPAPAPAPAPGSCCNCSSKWCRDHSRCC [NV1D3799]” had a pIC50 of 7.30. Take “GPCCNCSSKWCRDHSRCCGSAPAPAPAPAPAPAPAPAPAPGSQCQKWMQTCDRERKCCEGFVCTLWCRKKLW [NV1D3795]”: the pIC50 against human Nav1.7 was 7.00. “GPQCQKWMQTCDAERKCCEGFVCRLWCKKKLW-NH2 [NV1D2775-NH2]”: the “selectivity” value on human Nav1.6 is listed as “improved selectivity”. For “GPCCNCSSKWCRDHSRCCGRGSGGGGSAPAPAPAPAPAPAPAPAPAPGGGGSGSQCQKWMQTCDRERKCCEGFVCTLWCRKKLW [NV1D3830]”, the pIC50 at human Nav1.7 was 7.05.

For the substance “GPSHSNTQTLAKAPEHTGAPAPAPAPAPAPAPAPAPAPQCQKWMQTCDRERKCCEGFVCTLWCRKKLW [NV1D3774]”, on human Nav1.7, the pIC50 was 7.05. For “Ac-QCQKWMQTCDAERKCCEGFSCTLWCKKKLW-NH2 [(-GP) N-Ac-NV1D2974-NH2]”, the “selectivity” value at human Nav1.6 is given as “improved selectivity”. “GPQCQKWMQTCDRERKCCEGFVCTLWCRKKLWGSAPAPAPAPAPAPAPAPAPAPGSCCNCSSKWCRDHSRCCGR [NV1D3798]”: the pIC50 on human Nav1.7 was 7.02. Consider “GPYCQKWMQTCDANRKCCEGFSCRLWCKKKLW-OH (cysteine pairing not given here) [NV1D3586]”, for which, at human Nav1.6, the “selectivity” value was “improved selectivity”. For “GPCCNCSSKWCRDHSRCCGSAPAPAPAPAPGSQCQKWMQTCDRERKCCEGFVCTLWCRKKLW [NV1D3796]”, the negative logarithm of the IC50 (pIC50) on human Nav1.7 is 6.96. For the substance “GPRCQKWMQTCDAERKCCEGFVCRLWCKKKLW-OH (cysteine pairing not given here) [NV1D2772]”, the “selectivity” value on human Nav1.6 was “improved selectivity”.

“GPGWCGDPGATCGKLRLYCCSGFCDSYTKTCKDKSSAGGGGSAPAPAPAPAPAPAPAPAPAPAPAPAPAPAPGGGGSQCQKWMQTCDRERKCCEGFVCTLWCRKKLW [NV1D3822]”: the pIC50 at human Nav1.7 was 7.13. Turning to “GPQCQKWMQTCDARRKCCEGFVCRLWCKKKLW-OH (cysteine pairing not given here) [NV1D3006]”, at human Nav1.6, the “selectivity” value was “improved selectivity”. On to “GPQCQKWMQTCDRERKCCEGFVCTLWCRKKLWGGGGSAPAPAPAPAPAPAPAPAPAPAPAPAPAPAPGGGGSGWCGDPGATCGKLRLYCCSGFCDAYTKTCKDKSSA [NV1D3825]”, for which the pIC50 against human Nav1.7 was 6.71. As to “GPQCQKWMQTCDAERKCCEGFSCTLWCKKKLW-NH2 [NV1D2974-NH2]”, the “selectivity” value on human Nav1.6 was “improved selectivity”. With “GPQCQKWMQTCDRTRKCCEGFVCTLWCRKKLW-OH (cysteine pairing not given here) [NV1D3368]”, the “selectivity” value on human Nav1.6 is reported as “improved selectivity”. Also, the “reversal” value in the assay with C57Bl/6 mice (setting [1]) is listed as “fully reversed”. In addition, the “Thermal MPE %” value was 23 ± 8 (7) % with C57Bl/6 mice (setting [2]) and 47 ± 6 (8) % with C57Bl/6 mice (setting [3]).
